Columns and labels:
Type in all cases: in vivo
Puccinia recondita = test: Test B: wheat leaf rust, preventive spray on wheat seedlings; conditions: for Test B disease control rating: wheat leaf rust, 100 = 100% disease control, 0 = no control, unmarked entries (standard test concentration)
In short: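 Wheat seedlings were sprayed to run-off with compound (3% acetone, 250 ppm Trem 014), then inoculated with P. recondita spores the next day. They were held 24 h saturated at 20 °C, then 6 days at 20 °C. Ratings are 0–100% disease control versus controls.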

Pyricularia oryzae = conditions: for Test C disease control rating: rice blast, 100 = 100% disease control, 0 = no control, unmarked entries (standard test concentration)
Botrytis cinerea = test: Test E: gray mold, preventive spray on cucumber seedlings; conditions: for Test E disease control rating: gray mold on cucumber, 100 = 100% disease control, 0 = no control, unmarked entries (standard test concentration)
In short: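 Compounds in 3% acetone were suspended with 250 ppm Trem 014 surfactant and sprayed to run-off on cucumber seedlings. B. cinerea spores were inoculated next day, then 48 h saturated humidity at 20° C and 5 days at 20° C. Disease control rated 0–100% versus controls.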

Phytophthora infestans = conditions: for Test D disease control rating: tomato late blight, 100 = 100% disease control, 0 = no control, unmarked entries (standard test concentration)
[1] = test system: Eiysiphe graminis f. sp. tritici; test: Test A: wheat powdery mildew, preventive spray on wheat seedlings; conditions: for Test A disease control rating: wheat powdery mildew, 100 = 100% disease control, 0 = no control relative to controls, unmarked entries (standard test concentration)
In short: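 Compounds (3% acetone, 250 ppm Trem 014) sprayed to run-off on wheat seedlings, inoculated next day with spore dust. Incubated 7 days at 20° C before disease rating, 0–100% control relative to untreated controls.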

[2] = wheat seedlings sprayed to run-off, inoculated the following day, rating relative to controls, unmarked compounds (standard test rate)

Question: Which results are given for `CCC1(C(=O)NC(C)C=Cc2cc(F)ccc2F)C(C)C1(Cl)Cl` (single isomer, unassigned) [267a]?
Answer: Test B disease control rating (100 = 100% disease control, 0 = no disease control) (Puccinia recondita; [2]): 0%; Test C disease control rating (100 = 100% disease control, 0 = no disease control) (Pyricularia oryzae; rice seedlings sprayed to run-off, inoculated the following day, rating relative to controls, unmarked compounds (standard test rate)): 97%; Test E disease control rating (100 = 100% disease control, 0 = no disease control) (Botrytis cinerea; cucumber seedlings sprayed to run-off, inoculated the following day, rating relative to controls, unmarked compounds (standard test rate)): 55%; Test D disease control rating (100 = 100% disease control, 0 = no disease control) (Phytophthora infestans; tomato seedlings sprayed to run-off, inoculated the following day, rating relative to controls, unmarked compounds (standard test rate)): 0%; Test A disease control rating (100 = 100% disease control, 0 = no disease control) [1, 2]: 78%

Question: How did the “Test B disease control rating” value (Puccinia recondita) turn out when `C[C@H](COc1ccc(F)cc1Br)NC(=O)C(C#N)C(C)(C)C` (single isomer, unassigned) [165a] was run?
Answer: 0%

Question: And the “Test C disease control rating” value (Pyricularia oryzae)?
Answer: 74%

Question: What about the “Test E disease control rating” value (Botrytis cinerea) of the same compound?
Answer: 86%

Question: What about the “Test D disease control rating” value (Phytophthora infestans) of the same compound?
Answer: 23%

Question: And the “Test A disease control rating” value [1]?
Answer: 86%

Question: With `C[C@H](COc1cc(F)ccc1F)NC(=O)C(C#N)C(C)(C)C` (single isomer, unassigned) [28b] as the compound, how does the “Test B disease control rating” value (Puccinia recondita) read?
Answer: 28%

Question: And the “Test C disease control rating” value (Pyricularia oryzae)?
Answer: 100%

Question: And the “Test E disease control rating” value (Botrytis cinerea)?
Answer: 0%

Question: And the “Test D disease control rating” value (Phytophthora infestans)?
Answer: 96%

Question: And the “Test A disease control rating” value [1]?
Answer: 86%
